# Measured values published in patent publication US12616700B2, “Therapeutic regimen” (Novartis AG, priority 2017, dated 2026).
# Like-named read-outs stand apart in the source and are kept apart here.
# What was measured:
# [1] = tested on: P. vivax; conditions: in vitro; cited from earlier work
# [2] = tested on: P. vivax or P. falciparum; conditions: cited from earlier work
# [3] = tested on: drug-sensitive and a broad panel of drug resistant malaria strains; conditions: cited from earlier work
# [4] = tested on: Plasmodium; conditions: causal prophylactic protection in animal infection models; cited from earlier work
# [5] = tested on: P. falciparum; conditions: in vitro; cited from earlier work
# [6] = tested on: liver hypnozoites; conditions: cited from earlier work
# [7] = Dog study of lumefantrine-SDF and KAF156 alone and co-dosed (Example 6); format: in vivo; conditions: for Cmax / AUC(0-inf) / AUC(0-t) / half-life / Tmax: po, 100 mg; for AUC(0-inf): read-out: AUCinf, Mean; for AUC(0-t): read-out: AUClast, Mean; for half-life: read-out: T½, Mean (converted)
# Procedure: The study design is described in the table below. To stimulate gastric secretion, each animal (dog) received a single 6-μg/kg intramuscular injection of pentagastrin approximatively 60 minutes prior to test article administration. Washout between each treatment was approximatively 7-8 days. [table]
# [8] = format: in vitro ADME
# Procedure: Lumefantrine concentration was determined by a validated Liquid chromatography-Mass spectrometry (LC-MS/MS) method with a Lower Limit of Quantification (LLOQ) of 50 ng/mL. Briefly, the bioanalytical method consisted of protein precipitation followed by solid phase extraction of human plasma samples and analysis of diluted samples by LC-MS/MS in Multiple Reaction Monitoring (MRM) positive mode using Electrospray Ionization (ESI) as the ionization technique. The lower and upper limits of quantification for linear range were 50.0 ng/mL and 20000 ng/mL respectively using […] of human plasma. Lumefantrine in human plasma is stable for 44 hours at room temperature; 9 months at ≤−70° C.; 3 freeze/thaw cycles at ≤−70° C. The extract is stable for 100 hours in an autosampler at 8° C. The stability data could cover the period from sampling to analysis of all study samples. For eight points calibration concentrations (50, 100, 200, 500, 2000, 5000, 16000 and 20000 ng/mL) bias was within the range of 15.0% at all concentrations except for LLOQ (50 ng/mL) for which it was within the range of 20.0%. For quality control samples (150 ng/mL, 2500 ng/mL and 15000 ng/mL) bias was within the range of 15.0% for at least ⅔ of the individual values.
# [9] = cited from earlier work
# [10] = P. falciparum malaria, multiple-dose cohort
# [11] = Dog 3 (emesis after dosing in Phase 5)
# [12] = dog, in vivo, Phase 2 (Combo), dog
# [13] = dog, in vivo, Phase 5 (Mono), dog
structure (smiles),measurement,setting,value
"CC1(C)c2nc(-c3ccc(F)cc3)c(Nc3ccc(F)cc3)n2CCN1C(=O)CN [KAF156, 2-amino-1-(2-(4-fluorophenyl)-3-(4-fluorophenylamino)-8,8-dimethyl-5,6-dihydroimidazo[1,2-a]pyrazin-7(8H)-yl)ethanone]","EC50, erythrocytic replication life cycle stages (blood stages)",[1],low nanomolar
same,serious adverse events,[2]; 400 mg/day for 3 days or single 800 mg,No serious adverse event was reported
same,patients who reported nausea,[2]; [10],1 patient
same,patients who vomited,[2]; [10],1 patient
same,"activity against vivax and falciparum malaria, including artemisinin-resistant parasites",[2]; malaria patients,has activity
same,half-life,[2]; malaria patients,about 50 hours
same,patients who vomited,"[2]; single 800-mg dose, besides one withdrawn for repeated vomiting",Five
same,patients who reported nausea,[2]; single 800-mg dose,Four
same,potency against drug-sensitive versus drug resistant malaria strains,[3],equally potent
same,activity in liver stage models of Plasmodium infection,[4],has shown activity
same,"EC50, erythrocytic replication life cycle stages (blood stages)",[5],low nanomolar
same,activity against liver hypnozoites,[6],has not demonstrated activity
same,AUCinf Ratio (Phase 2:Phase 5),[7]; Dog 1,2.6
same,AUClast Ratio (Phase 2:Phase 5),[7]; Dog 1,2.7
same,Cmax Ratio (Phase 2:Phase 5),[7]; Dog 1,2.6
same,AUCinf Ratio (Phase 2:Phase 5),[7]; Dog 2,2.8
same,AUClast Ratio (Phase 2:Phase 5),[7]; Dog 2,2.9
same,Cmax Ratio (Phase 2:Phase 5),[7]; Dog 2,2.5
same,AUCinf Ratio (Phase 2:Phase 5),[7]; [11],5.3
same,AUClast Ratio (Phase 2:Phase 5),[7]; [11],5.2
same,Cmax Ratio (Phase 2:Phase 5),[7]; [11],3.3
same,AUCinf Ratio (Phase 2:Phase 5),[7]; Mean,3.6
same,AUClast Ratio (Phase 2:Phase 5),[7]; Mean,3.6
same,Cmax Ratio (Phase 2:Phase 5),[7]; Mean,2.8
same,Cmax,"[7]; dog, in vivo, Phase 2 (Combo)",1200 ng/mL
same,AUC(0-inf),[7]; [12],45400 ng·h/mL
same,AUC(0-t),[7]; [12],36700 ng·h/mL
same,half-life,"[7]; dog, in vivo, Phase 2 (Combo), with Lumefantrine-SDF sachet, dog",31 h
same,Tmax,"[7]; dog, in vivo, Phase 2 (Combo), Tmax 1, 1, 8 hr in 3 dogs",3.3 h
same,Cmax,"[7]; dog, in vivo, Phase 5 (Mono)",451 ng/mL
same,Tmax,"[7]; dog, in vivo, Phase 5 (Mono)",1 h
same,AUC(0-inf),[7]; [13],14400 ng·h/mL
same,AUC(0-t),[7]; [13],11600 ng·h/mL
same,half-life,[7]; [13],33.2 h
"CCCCN(CCCC)CC(O)c1cc(Cl)cc2c1-c1ccc(Cl)cc1/C2=C/c1ccc(Cl)cc1 (stereo not drawn) [Lumefantrine, lumefantrine]",stability of the extract,"[8]; human, 100 hours",100 h
same,stability in human plasma,"[8]; plasma, 44 hours",44 h
same,increase of bioavailability by food,[9]; in vivo,up to 16 fold
same,increase of lumefantrine exposure when administered together with KAF156,"[7]; dog, in vivo",around 1.5 fold
CO[C@H]1O[C@@H]2O[C@@]3(C)CC[C@H]4[C@H](C)CC[C@@H]([C@H]1C)[C@@]24OO3 [artemether],increase of bioavailability by food,[9]; Coartem administered with high fat food,up to 3 fold
